Assay results reported in ChEMBL document CHEMBL1201862, “PubChem BioAssay data set” (2004).
Activity calls are given as the source filed them.

Assays:
[1] = target: COUP transcription factor 2 (Homo sapiens, UniProt P24468); assay: Luminescence-based cell-based high throughput dose response assay to identify inhibitors of COUP-TFII (NR2F2).; assay type: functional;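 also: HEK293 cells transiently cotransfected with COUP-TFII expression vector and reporter; luciferase reporter luminescence driven by COUP-TFII from the pX2-168 reporter plasmid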
[2] = target: T1, Heat shock factor protein 1 (Mus musculus, UniProt P38532); assay: inhibition of MG132-induced HSE-luciferase signal, confirmation, cell-based, NIH3T3, luminescence, dose retest (AID 2382); assay type: functional;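 also: NIH3T3 fibroblasts with HSF1-driven luciferase reporter stressed by proteasome inhibitor MG132; luminescence from HSF1-driven luciferase expression after 8 hours of MG132 stress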
T1 sequence (P38532 whole entry): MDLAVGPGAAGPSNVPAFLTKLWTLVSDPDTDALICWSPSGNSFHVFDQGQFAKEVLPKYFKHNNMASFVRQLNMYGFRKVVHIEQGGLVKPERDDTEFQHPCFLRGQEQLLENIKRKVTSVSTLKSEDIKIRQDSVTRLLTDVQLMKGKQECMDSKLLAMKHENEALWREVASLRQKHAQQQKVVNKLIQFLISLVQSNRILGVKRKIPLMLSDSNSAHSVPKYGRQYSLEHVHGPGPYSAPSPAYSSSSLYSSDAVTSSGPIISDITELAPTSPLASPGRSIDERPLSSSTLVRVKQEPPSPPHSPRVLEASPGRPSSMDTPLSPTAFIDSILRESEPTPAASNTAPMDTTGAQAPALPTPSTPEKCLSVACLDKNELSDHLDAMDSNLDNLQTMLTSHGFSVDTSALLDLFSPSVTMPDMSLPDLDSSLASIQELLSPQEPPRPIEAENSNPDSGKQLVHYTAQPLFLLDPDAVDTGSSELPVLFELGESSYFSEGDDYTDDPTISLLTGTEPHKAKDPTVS

[3] = Luminescence Cell-Based Dose Confirmation HTS to Identify Inhibitors of Platelet Dense Granule Release. [Related pubchem assays: 1663 (Primary HTS), 1678 (Summary of Project)]; assay type: functional
[4] = Luminescence-based counterscreen assay for KLF5 inhibitors: dose response cell-based high throughput screening assay to identify cytotoxic compounds using the IEC-6 intestinal epithelial cell line. [Related pubchem assays: 1700 (Primary screen.), 1834 (Confirmation screen.), 1858 (Summary AID.), 1905 (Counterscreen.)]; assay type: functional
[5] = target: Luciferin 4-monooxygenase (Photinus pyralis, UniProt P08659); assay: firefly luciferase enzyme inhibitors, dose response, biochemical, luminescence (AID 1891)
[6] = NIH:OVCAR-3 ovarian cancer cell cytotoxicity, dose response, PAX8 inhibitor project, plate reader, dry powder samples (AID 743044); assay type: functional, cell-based
Paired box protein Pax-8 = Paired box protein Pax-8 (Homo sapiens, UniProt Q06710); assay: inhibitors of PAX8-driven TPO luciferase reporter, dose response, RMG-I cells, cherry-pick (AID 687027); assay type: functional, cell-based;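 also: luciferase reporter driven by Pax8 target thyroperoxidase promoter measured by SteadyGlo luminescence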
[7] = non-specific cell cytotoxicity, dose response, cytotoxicity control for PAX8 inhibitor project, plate reader, dry powder samples (AID 743021); assay type: functional, cell-based
[8] = IGROV1 ovarian cancer cell cytotoxicity, dose response, PAX8 inhibitor project, plate reader, dry powder samples (AID 743043); assay type: functional, cell-based; conditions: IGROV-1
[9] = cytotoxicity in OVCAR8 ovarian cancer cells, dose response, PAX8 project, cell-based, plate reader, dry powder samples (AID 743197); assay type: functional; conditions: OVCAR-8
[10] = Late stage counterscreen for inhibitors of Trypanosoma brucei methionyl tRNA synthetase (MetRS): Luminescence-based cell-based high throughput dose response assay to identify compounds that are cytotoxic to Jurkat human T lymphocyte cells.; assay type: functional
HeLa = assay: HeLa cell cytotoxicity, dose response, cytotoxicity control, ATP luminescence, cherry-pick samples (AID 687004); assay type: functional, cell-based; conditions: Homo sapiens
HEK293 = assay: HEK293T cell cytotoxicity, dose response, cytotoxicity control, ATP luminescence, cherry-pick samples (AID 687005); assay type: functional, cell-based; conditions: Homo sapiens;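 also: cells exposed to compound for 48 hours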
[11] = HEK293 Cytotoxicity Assay Measured in Cell-Based System Using Plate Reader - 7071-01_Inhibitor_Dose_CherryPick_Activity_Set2.; assay type: functional

Sequence of Paired box protein Pax-8 (Q06710 whole entry): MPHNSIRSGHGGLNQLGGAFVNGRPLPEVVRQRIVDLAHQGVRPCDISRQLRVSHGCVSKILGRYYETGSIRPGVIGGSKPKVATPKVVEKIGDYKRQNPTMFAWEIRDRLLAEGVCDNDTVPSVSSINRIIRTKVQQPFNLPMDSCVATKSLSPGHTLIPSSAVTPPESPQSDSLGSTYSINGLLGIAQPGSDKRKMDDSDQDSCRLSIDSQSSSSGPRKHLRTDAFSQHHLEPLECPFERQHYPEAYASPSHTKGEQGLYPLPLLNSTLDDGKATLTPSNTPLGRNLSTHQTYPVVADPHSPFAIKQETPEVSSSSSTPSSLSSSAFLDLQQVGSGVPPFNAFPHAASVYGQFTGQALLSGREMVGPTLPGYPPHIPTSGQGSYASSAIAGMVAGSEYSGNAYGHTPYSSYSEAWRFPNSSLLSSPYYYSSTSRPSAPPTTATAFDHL
Sequence of COUP transcription factor 2 (P24468 whole entry): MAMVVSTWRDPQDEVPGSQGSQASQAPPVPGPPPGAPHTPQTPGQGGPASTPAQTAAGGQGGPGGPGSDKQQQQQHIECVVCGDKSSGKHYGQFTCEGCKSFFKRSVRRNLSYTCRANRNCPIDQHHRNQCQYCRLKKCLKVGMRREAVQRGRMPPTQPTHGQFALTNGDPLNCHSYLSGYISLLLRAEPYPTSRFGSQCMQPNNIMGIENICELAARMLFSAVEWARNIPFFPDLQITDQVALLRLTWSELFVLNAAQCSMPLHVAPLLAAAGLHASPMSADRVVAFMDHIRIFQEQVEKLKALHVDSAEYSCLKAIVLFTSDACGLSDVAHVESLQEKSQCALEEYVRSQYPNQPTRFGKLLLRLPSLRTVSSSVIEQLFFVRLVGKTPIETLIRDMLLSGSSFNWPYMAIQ
Sequence of Luciferin 4-monooxygenase (P08659 whole entry): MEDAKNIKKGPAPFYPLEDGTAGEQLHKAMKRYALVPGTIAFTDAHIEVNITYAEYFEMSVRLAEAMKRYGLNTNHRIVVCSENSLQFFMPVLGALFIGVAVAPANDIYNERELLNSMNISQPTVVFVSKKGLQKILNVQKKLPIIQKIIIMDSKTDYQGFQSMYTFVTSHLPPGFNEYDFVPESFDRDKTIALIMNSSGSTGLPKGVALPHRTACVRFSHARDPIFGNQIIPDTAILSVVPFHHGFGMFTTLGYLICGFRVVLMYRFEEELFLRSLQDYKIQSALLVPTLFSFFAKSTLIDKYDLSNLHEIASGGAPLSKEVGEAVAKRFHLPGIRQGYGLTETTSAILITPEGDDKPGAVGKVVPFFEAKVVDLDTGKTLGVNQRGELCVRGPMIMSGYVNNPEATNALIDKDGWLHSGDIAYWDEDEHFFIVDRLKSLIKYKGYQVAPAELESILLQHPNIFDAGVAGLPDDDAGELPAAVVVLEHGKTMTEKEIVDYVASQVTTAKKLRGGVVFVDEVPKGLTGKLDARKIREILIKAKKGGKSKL

COc1ccc(C(=O)Nc2ccccc2C(=O)N/N=C/c2ccc(O)c(OC)c2)cc1
IC50 [1]: > 9.49 µM (active)
EC50 [2]: < 0.16 µM (active)
EC50 [3]: 0.156 µM (active)
IC50 [4]: > 39.8 µM (not active)
EC50 [5]: 0.149 µM (active)

C[C@@H]1CCCCO[C@H](CN(C)Cc2ccc(C(F)(F)F)cc2)[C@@H](C)CN([C@@H](C)CO)C(=O)c2cc(NC(=O)c3ccccc3)ccc2O1
AC50 [6]: 10.8 µM (active)
AC50 (Paired box protein Pax-8): 6.57 µM (active)
AC50 [7]: 52.2 µM (active)
AC50 [8]: 26.2 µM (active)
AC50 [9]: 21.5 µM (active)

O=C(CC=NOCc1ccc([N+](=O)[O-])cc1)Nc1ccc(Cl)cc1
IC50 [10]: > 83.3 µM (inactive)

C[C@@H]1CN([C@H](C)CO)S(=O)(=O)c2ccc(C#Cc3ccc(F)cc3)cc2O[C@H]1CN(C)C(=O)NC1CCCC1
AC50 (HeLa): 34.7 µM (active)
AC50 (HEK293): 4.91 µM (active)
AC50 [11]: 4.91 µM (active)
